Measured values published in patent EP1976513B1 (priority 2006, dated 2007).
Where a name gives a salt, the structure may show the parent alone. Read-outs that look alike come from different tables or passages of the source.

How the values were obtained:
[1] = molecular target: T1, human dopamine reuptake transporter (Homo sapiens, UniProt Q01959); assay: cell-based
T1 construct: expressed in transfected cells; host or cells: CHO-K1 or HEK293

[2] = molecular target: human serotonin reuptake transporter (Homo sapiens, UniProt P31645); assay: cell-based
[3] = recombinant human dopamine transporter (DAT), read-out: Human IC50 (nM) hDAT
[4] = recombinant human serotonin transporter (SERT), read-out: Human IC50 (nM) hSERT
[5] = Human IC50 (nM) hSERT, recombinant human serotonin transporter (SERT)

T1 sequence (Q01959 whole entry): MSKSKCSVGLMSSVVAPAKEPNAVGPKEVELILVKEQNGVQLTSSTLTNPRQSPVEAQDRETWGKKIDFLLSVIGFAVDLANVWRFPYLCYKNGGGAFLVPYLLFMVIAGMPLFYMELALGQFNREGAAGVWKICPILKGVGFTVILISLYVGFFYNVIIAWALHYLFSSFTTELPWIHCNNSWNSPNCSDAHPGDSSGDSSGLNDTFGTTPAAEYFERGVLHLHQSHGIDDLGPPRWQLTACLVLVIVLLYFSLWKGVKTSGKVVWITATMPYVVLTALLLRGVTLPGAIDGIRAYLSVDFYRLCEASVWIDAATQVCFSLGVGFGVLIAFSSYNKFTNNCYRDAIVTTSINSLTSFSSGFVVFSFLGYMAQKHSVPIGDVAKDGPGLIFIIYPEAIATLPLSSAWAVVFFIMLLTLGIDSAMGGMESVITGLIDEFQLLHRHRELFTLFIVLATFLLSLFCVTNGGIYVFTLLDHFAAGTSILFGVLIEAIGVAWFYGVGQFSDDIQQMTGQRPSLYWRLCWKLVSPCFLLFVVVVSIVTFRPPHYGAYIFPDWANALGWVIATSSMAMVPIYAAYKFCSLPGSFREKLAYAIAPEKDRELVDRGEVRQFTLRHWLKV
Chain of human serotonin reuptake transporter (P31645 whole entry): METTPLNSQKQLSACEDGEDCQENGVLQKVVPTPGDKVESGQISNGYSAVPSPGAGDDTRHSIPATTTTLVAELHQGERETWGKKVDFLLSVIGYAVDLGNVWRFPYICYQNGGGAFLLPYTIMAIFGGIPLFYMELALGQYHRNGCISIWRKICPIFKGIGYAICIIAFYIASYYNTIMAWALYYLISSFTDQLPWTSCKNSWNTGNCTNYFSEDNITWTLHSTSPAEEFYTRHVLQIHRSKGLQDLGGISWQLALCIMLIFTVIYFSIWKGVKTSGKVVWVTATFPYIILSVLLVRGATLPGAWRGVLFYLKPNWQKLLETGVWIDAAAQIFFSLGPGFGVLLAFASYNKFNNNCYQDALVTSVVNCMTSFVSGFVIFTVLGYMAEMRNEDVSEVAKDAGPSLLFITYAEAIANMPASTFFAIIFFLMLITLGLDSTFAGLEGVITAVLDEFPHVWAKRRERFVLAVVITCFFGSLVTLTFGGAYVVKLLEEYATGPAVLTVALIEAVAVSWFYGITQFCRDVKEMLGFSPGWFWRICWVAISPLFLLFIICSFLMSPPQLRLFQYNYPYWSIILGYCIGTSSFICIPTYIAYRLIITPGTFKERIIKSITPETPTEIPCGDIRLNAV

OC1Cc2ccccc2C1NCC1(c2ccc(Cl)c(Cl)c2)CCCCC1 (racemic) [Compound 113, 1-((1-(3,4-dichlorophenyl)cyclohexyl)methylamino)-2,3-dihydro-1H-inden-2-ol] gave an IC50 [1, 3] of 285 nM and an IC50 [2, 4] of 2570 nM.

For CC1CCCN(CC2(c3ccc(Cl)c(Cl)c3)CCCCC2)C1 (racemic) [Compound 114, 1-((1-(3,4-dichlorophenyl)cyclohexyl)methyl)-3-methylpiperidine], the IC50 [1, 3] was 16 nM and the IC50 ([2]; Human IC50 (nM) hSERT) was greater than 10000 nM.

In the case of CC1CCCN1CC1(c2ccc(Cl)c(Cl)c2)CCCCC1 (racemic) [Compound 115, 1-((1-(3,4-dichlorophenyl)cyclohexyl)methyl)-2-methylpyrrolidine], the IC50 [1, 3] is reported as less than 1 nM and the IC50 ([2]; Human IC50 (nM) hSERT) is reported as greater than 10000 nM.

OC1CCCCC1NCC1(c2ccc(Cl)c(Cl)c2)CCCCC1 (racemic) [Compound 117, 2-((1-(3,4-dichlorophenyl)cyclohexyl)methylamino)cyclohexanol] was tested, and the IC50 [1, 3] was 33 nM and the IC50 [2, 4] was 7900 nM.

In the case of NCC1(c2ccc3ccccc3c2)CC=CCC1 (racemic) [Compound 291, (1-(naphthalen-2-yl)cyclohex-3-enyl)methanamine], the IC50 [1, 3] is reported as 72 nM and the IC50 [2, 4] is reported as 185 nM.

CNCC1(c2ccc3ccccc3c2)CC=CCC1 (racemic) [Compound 292, N-methyl-1-(1-(naphthalen-2-yl)cyclohex-3-enyl)methanamine] showed an IC50 ([1]; Human IC50 (nM) hDAT) of 89 nM and an IC50 ([2]; read-out: Human IC50 (nM) hSERT) of 360 nM.

CNC(=O)[C@]1(c2ccc3ccccc3c2)CCCC[C@H]1O (relative stereo) [Compound 301, trans-2-hydroxy-N-methyl-1-(naphthalen-2-yl)cyclohexanecarboxamide] was tested, and the IC50 [1, 3] was 8780 nM and the IC50 [2, 4] was greater than 10000 nM.

With CC(N)C1(c2ccc(-c3ccoc3)cc2)CCCCC1 (single isomer, unassigned) [20 E1, 1-(1-(4-(furan-3-yl)phenyl)cyclohexyl)ethanamine] the IC50 [1, 3] was 369 nM and the IC50 [2, 4] was 40 nM.

CC(N)C1(c2ccc(-c3ccoc3)cc2)CCCCC1 (single isomer, unassigned) [20 E2, 1-(1-(4-(furan-3-yl)phenyl)cyclohexyl)ethanamine] was tested, and the IC50 [1, 3] was 437 nM and the IC50 [2, 4] was 60 nM.

In the case of CC(N(C)C)C1(c2cccc3ccccc23)CCCCC1 (single isomer, unassigned) [60 E1, N,N-dimethyl-1-(1-(naphthalen-1-yl)cyclohexyl)ethanamine], the IC50 [1, 3] is reported as 748 nM and the IC50 [2, 4] is reported as 184 nM.

Compound CC(N(C)C)C1(c2cccc3ccccc23)CCCCC1 (single isomer, unassigned) [60 E2, N,N-dimethyl-1-(1-(naphthalen-1-yl)cyclohexyl)ethanamine] has an IC50 [1, 3] of 6740 nM and an IC50 [2, 4] of 4630 nM.

CCC(N(C)C)C1(c2ccc(Cl)c(Cl)c2)CCCCC1 (single isomer, unassigned) [61 E1, 1-(1-(3,4-dichlorophenyl)cyclohexyl)-N,N-dimethylpropan-1-amine] was tested, and the IC50 [1, 3] was 959 nM and the IC50 [2, 5] was 5950 nM.

Work on CCC(N(C)C)C1(c2ccc(Cl)c(Cl)c2)CCCCC1 (single isomer, unassigned) [61 E2, 1-(1-(3,4-dichlorophenyl)cyclohexyl)-N,N-dimethylpropan-1-amine] yielded an IC50 [1, 3] of 116 nM and an IC50 [2, 5] of 9440 nM.

For CC(N(C)C)C1(c2ccc(OC(F)(F)F)cc2)CCCCC1 (single isomer, unassigned) [63 E1, N,N-dimethyl-1-(1-(4-(trifluoromethoxy)phenyl)cyclohexyl)ethanamine], the IC50 [1, 3] was 6540 nM and the IC50 [2, 4] was 194 nM.

For CC(N(C)C)C1(c2ccc(OC(F)(F)F)cc2)CCCCC1 (single isomer, unassigned) [63 E2, N,N-dimethyl-1-(1-(4-(trifluoromethoxy)phenyl)cyclohexyl)ethanamine], the IC50 [1, 3] was 1820 nM and the IC50 [2, 4] was 2 nM.

With CNC(C)C1(c2ccc(OC(F)(F)F)cc2)CCCCC1 (single isomer, unassigned) [64 E1, N-methyl-1-(1-(4-(trifluoromethoxy)phenyl)cyclohexyl)ethanamine] the IC50 ([1]; Human IC50 (nM) hDAT) was greater than 10000 nM and the IC50 [2, 4] was 58 nM.

With CNC(C)C1(c2ccc(OC(F)(F)F)cc2)CCCCC1 (single isomer, unassigned) [64 E2, N-methyl-1-(1-(4-(trifluoromethoxy)phenyl)cyclohexyl)ethanamine] the IC50 ([1]; Human IC50 (nM) hDAT) was 3640 nM and the IC50 [2, 4] was 32 nM.

CNCC1(c2ccc(OC)cc2)CCCCC1O (single isomer, unassigned) [139 E1, cis-2-((methylamino)methyl)-2-(4-methoxyphenyl)cyclohexanol] was tested, and the IC50 [1, 3] was greater than 10000 nM and the IC50 [2, 4] was greater than 10000 nM.

CNCC1(c2ccc(OC)cc2)CCCCC1O (single isomer, unassigned) [139 E2, cis-2-((methylamino)methyl)-2-(4-methoxyphenyl)cyclohexanol] gave an IC50 [1, 3] greater than 10000 nM and an IC50 [2, 4] greater than 10000 nM.

For CC1(O)CCCC(CN)(c2ccc(Cl)c(Cl)c2)C1 (single isomer, unassigned) [193 E1, 3-Aminomethyl-3-(3,4-dichloro-phenyl)-1-methyl-cyclohexanol], the IC50 [1, 3] was 266 nM and the IC50 [2, 4] was 416 nM.

CC1(O)CCCC(CN)(c2ccc(Cl)c(Cl)c2)C1 (single isomer, unassigned) [193 E2, 3-Aminomethyl-3-(3,4-dichloro-phenyl)-1-methyl-cyclohexanol] showed an IC50 [1, 3] of 3160 nM and an IC50 [2, 4] of 957 nM.

Work on COC1CCCC(CN)(c2ccc(Cl)c(Cl)c2)C1 (single isomer, unassigned) [195 E2] yielded an IC50 [1, 3] of 5320 nM and an IC50 [2, 4] of 45 nM.

Compound CNC(C)C1(c2ccc3ccccc3c2)CCC(C)(O)CC1 (single isomer, unassigned) [231 E1, 1-methyl-4-(1-(methylamino)ethyl)-4-(naphthalen-2-yl)cyclohexanol] has an IC50 [1, 3] of 460 nM and an IC50 [2, 4] of 1280 nM.

In the case of CNC(C)C1(c2ccc3ccccc3c2)CCC(C)(O)CC1 (single isomer, unassigned) [231 E2, 1-methyl-4-(1-(methylamino)ethyl)-4-(naphthalen-2-yl)cyclohexanol], the IC50 [1, 3] is reported as 83 nM and the IC50 [2, 4] is reported as 63 nM.

For CC(N(C)C)C1(c2ccc3ccccc3c2)CCC(C)(O)CC1 (single isomer, unassigned) [234 E1, 4-(1-(dimethylamino)ethyl)-1-methyl-4-(naphthalen-2-yl)cyclohexanol], the IC50 [1, 3] was 346 nM and the IC50 [2, 4] was 3380 nM.

CC(N(C)C)C1(c2ccc3ccccc3c2)CCC(C)(O)CC1 (single isomer, unassigned) [234 E2, 4-(1-(dimethylamino)ethyl)-1-methyl-4-(naphthalen-2-yl)cyclohexanol] showed an IC50 [1, 3] of 21 nM and an IC50 [2, 4] of 18 nM.

Compound COC1CCCC(CN)(c2ccc(Cl)c(Cl)c2)C1 (single isomer, unassigned) [Compound 194] has an IC50 [1, 3] of 2370 nM and an IC50 [2, 4] of 330 nM.

CN1Cc2c(ccc3c2OCO3)C2(CCC(C)(O)CC2)C1 (single isomer, unassigned) [Compound 294, 4',8-dimethyl-8,9-dihydro-7H-spiro([1,3]dioxolo[4,5-h]isoquinoline-6,1'-cyclohexan]-4'-ol] was tested, and the IC50 [1, 3] was greater than 10000 nM and the IC50 [2, 4] was greater than 10000 nM.

CN1Cc2c(ccc3c2OCO3)C2(CCC(C)(O)CC2)C1 (single isomer, unassigned) [Compound 295, 4',8-dimethyl-8,9-dihydro-7H-spiro [[1,3]dioxolo[4,5-h]isoquinoline-6,1'-cyclohexan]-4'-ol] was tested, and the IC50 [1, 3] was greater than 10000 nM and the IC50 [2, 4] was greater than 10000 nM.

NCC1(c2ccc(Cl)c(Cl)c2)CCC1 [Compound 1, (1-(3,4-dichlorophenyl)cyclobutyl)methanamine] was tested, and the IC50 [1, 3] was 103 nM and the IC50 [2, 4] was 1290 nM.

CSc1ccc(C2(CN)CCCCC2)cc1 [Compound 10, (1-(4-(methylthio)phenyl)cyclohexyl)methanamine] gave an IC50 [1, 3] of 2930 nM and an IC50 [2, 5] of 1910 nM.

CC(N)C1(c2ccc(-c3ccoc3)cc2)CCCCC1 (stereo not shown) [Compound 20, 1-(1-(4-(furan-3-yl)phenyl)cyclohexyl)ethanamine] was tested, and the IC50 [1, 3] was 275 nM and the IC50 [2, 4] was 24 nM.

With NCC1(c2ccc(-c3cc(F)cc(F)c3)cc2)CCCCC1 [Compound 23, (1-(3',5'-difluorobiphenyl-4-yl)cyclohexyl)methanamine] the IC50 [1, 3] was 682 nM and the IC50 [2, 4] was 62 nM.

NCC1(c2cccc(Cl)c2)CCCCC1 [Compound 28, (1-(3-chlorophenyl)cyclohexyl)methanamine hydrochloride] gave an IC50 [1, 3] of 707 nM and an IC50 [2, 4] of 4560 nM.

Work on NCC1(c2ccc(Cl)cc2)CCCCC1 [Compound 29, (1-(4-chlorophenyl)cyclohexyl)methanamine hydrochloride] yielded an IC50 [1, 3] of 195 nM and an IC50 [2, 4] of 5240 nM.

With NCC1(c2ccc(Cl)c(Cl)c2)CC=CCC1 (stereo not shown) [Compound 71] the IC50 ([1]; Human IC50 (nM) hDAT) was 123 nM.

CNCC1(c2ccc3ccccc3c2)CCC(O)CC1 (stereo not shown) [Compound 227, 4-((methylamino)methyl)-4-(naphthalen-2-yl)cyclohexanol] gave an IC50 [1, 3] of 5780 nM.

Compound CNCC1(c2ccc3ccccc3c2)CCC(F)CC1 (stereo not shown) [Compound 232, 1-(4-fluoro-1-(naphthalen-2-yl)cyclohexyl)-N-methylmethanamine] has an IC50 [1, 3] of 25 nM.

With CNCC1(c2ccc3ccccc3c2)CCC(F)CC1 (stereo not shown) [Compound 236, 1-(4-fluoro-1-(naphthalen-2-yl)cyclohexyl)-N-methylmethanamine] the IC50 [1, 3] was 444 nM.

NCC1(c2ccc(Cl)c(Cl)c2)CCC(F)CC1 (stereo not shown) [Compound 253, (1-(3,4-dichlorophenyl)-4-fluorocyclohexyl)methanamine] was tested, and the IC50 [1, 3] was 37 nM.

With NCC1(c2ccc(Cl)c(Cl)c2)CCC(F)CC1 (stereo not shown) [Compound 260, (1-(3,4-dichlorophenyl)-4-fluorocyclohexyl)methanamine] the IC50 [1, 3] was 306 nM.

CCC1(O)CCC(CNC)(c2ccc(Cl)c(Cl)c2)CC1 (stereo not shown) [Compound 279, 4-(3,4-dichlorophenyl)-1-ethyl-4-((methylamino)methyl)cyclohexanol] showed an IC50 [1, 3] of 1450 nM.

For CCC1(O)CCC(CNC)(c2ccc(Cl)c(Cl)c2)CC1 (stereo not shown) [Compound 282, 4-(3,4-dichlorophenyl)-1-ethyl-4-((methylamino)methyl)cyclohexanol], the IC50 [1, 3] was 186 nM.

NC[C@]1(c2ccc(Cl)c(Cl)c2)CC[C@H](O)CC1 [Compound 299, (1s,4s)-4-(aminomethyl)-4-(3,4-dichlorophenyl)cyclohexanol] was tested, and the IC50 [1, 3] was 720 nM.
